# Measured values as given in US12318365B2, “Inhibition of dipeptide repeat proteins” (ALS Therapy Development Institute, priority 2019, dated 2025).
# Entries after “also recorded” stand apart in the source; their conditions may differ. No end group written: not given here.
# Legend:
# NSC-34 cells = assay: BrdU ELISA (proliferation) in NSC-34 cells; format: cell-based, Mouse; conditions: for abrogation of GR-induced proliferation inhibition: 300 nM GR15, 24 h; for effect of DRP on proliferation activity: compared to DMSO-treated controls
# Description: BrdU ELISA: The BrdU ELISA is an ELISA detecting cell proliferation activity. BrdU is a pyrimidine analog that, when inside the cell, can be incorporated instead of thymidine into newly synthesized strands of DNA. Just as is indicated by thymidine incorporation into DNA, BrdU incorporation into cell DNA indicates DNA synthesis activity, which is required for cell proliferation. In the BrdU ELISA, cells are treated with test compounds as well as BrdU reagent, and then incubated for 24 hours before testing. During testing, an anti-BrdU antibody detects the incorporation of BrdU into cell DNA that occurred over the 24-hour period, as a surrogate for cell proliferation activity. This anti-BrdU antibody is then labelled with a secondary antibody tagged with a colored substrate, which can be quantified spectrophotometrically. Greater absorbance readings correspond to more cell proliferation activity.
# Cells were plated in culture medium in 2 96-well plates at a density of 3.7×10^4 cells per well, and incubated overnight at 37° C., 5% CO2.
# The following conditions were plated in triplicate.
# Plates were incubated for 24 h at 37° C., 5% CO2. Cells were tested and data were analyzed using the procedure detailed in BrdU ELISA kit instructions.
# Cells were plated in culture medium in 2 96-well plates at a density of 5×10^4 cells per well, and incubated overnight at 37° C., 5% CO2. […] 10 μL of each concentration would be added to 100 μL base media in plate to achieve final concentrations of 3, 1, 0.3, 0.1, 0.03, and 0.01 μM DRP.
# The following conditions were plated in triplicate. Samples were surrounded by border wells on the outside of the plate filled with sterile Phosphate-buffered saline to prevent evaporation of volume in experimental wells during incubation; • Culture medium only • Background (Cells only in culture medium, without BrdU reagent) • Untreated (Cells only in culture medium, with BrdU reagent) • DMSO Controls (Cells treated with BrdU reagent and the amount of DMSO that DRP-treated cells were exposed to at each concentration) • i. The DMSO controls tested were as follows, corresponding to DRP doses starting at the highest (3 μM to the lowest 0.01 μM), and were diluted in culture medium: • 1. 0.03% DMSO • 2. 0.01% DMSO • 3. 0.003% DMSO • 4. 0.001% DMSO • 5. 0.0003% DMSO • 6.
# [1] = system: NSC-34 motor-neuron-like cells; assay: WST-1 assay (dysmetabolism) in NSC-34 cells; format: cell-based, Mouse; conditions: for reduction of metabolic activity in NSC-34 compared to CHO: DRP 30 and 3 μM, 48 h
# From the text: WST-1 Assay: The WST-1 assay is a colorimetric assay that measures cell metabolism. Cells with a healthy metabolism contain mitochondrial dehydrogenase enzymes that remove hydrogen atoms from certain molecules, resulting in a release of energy that the cell can use to perform critical reactions. In the WST-1 assay, a water soluble tetrazolium salt substrate (known as WST-1) is applied, which readily enters cells and their mitochondria upon application. If cells are viable, their mitochondrial dehydrogenase enzymes will catalyze the reaction to convert this WST-1 substrate to a colored product called Formazan. The production of this colored Formazan product by viable cells can be quantified using a spectrophotometer (plate reader). Higher absorbance readings correspond to greater metabolic activity/cell viability.
# NSC-34 Cell Culture: NSC-34 cells (Cedarlane Laboratories, Burlington, ON, CA) were cultured in a complete medium consisting of High Glucose Dulbecco's Modified Eagle Medium (Millipore-Sigma, Burlington, MA, USA) supplemented with 10% US-origin fetal bovine serum (Thermo-Fisher Scientific, Cambridge, MA, USA), 1% 200 mM L-Glutamine solution (Thermo-Fisher Scientific, Cambridge, MA, USA), and 1% 10,000 U/mL Penicillin-Streptomycin solution (Thermo-Fisher Scientific, Cambridge, MA, USA). Prior to preparation of NSC-34 complete medium, L-Glutamine and Penicillin-Streptomycin solutions were aliquoted and stored at −20° C., and DMEM/High Glucose was stored at 4°. […] Prepared complete medium, DPBS, and Trypsin were always heated in a 37° C. water bath before use, and stored at 4° C. between uses. Cell counts for plating were performed using a Hausser Scientific cell counting chamber (Thermo-Fisher Scientific, Cambridge, MA, USA).
# Proteins were reconstituted in sterile DMSO (Millipore-Sigma, Burlington, MA, USA) to stock concentrations of 10 mM, and stored at 4° C.
# After reconstitution using the solvents specified in Table _, stocks were aliquoted to 15-20 μL and immediately stored at −20° C.
# One row on the top and bottom of the plate, and two columns on either side of the plate, were left without cells and contained culture medium only to minimize experimental well volume evaporation. After plating, cells were incubated for 24 h at 37° C., 5% CO2 prior to DRP and/or PRMT inhibitor addition. At time of DRP/PRMT inhibitor addition, desired doses of DRP for challenge and inhibitor for treatment were achieved by diluting aliquots of each stock in warm culture medium. During experiments where both PRMT inhibitors and DRPs were used, PRMT inhibitors were always applied to wells first, and followed by DRP application. […] Inhibitor toxicity controls were included as wells treated with the desired doses of drug for the experiment, but no DRP. DRP toxicity controls were included as wells only treated with the doses of DRP used for challenge. […] Additional controls needed for each endpoint are specified in the “WST-1 Assay” and “LDH Assay” sections of these methods.
# WST-1 Assay: Cells were plated and prepared using the steps described in the “Plating NSC-34 and Dosing with DRPs and PRMT Inhibitors” section of these methods. Other controls for this experiment included wells containing only cells in culture medium, and culture medium only. At time of testing, culture medium was removed from wells and replaced with a warmed, sterile-filtered solution consisting of DPBS with calcium and magnesium, and 4.5 g/L D-glucose (Millipore-Sigma, Burlington, MA, USA). To wells containing 200 μL DPBS-glucose solution, 20 μL/well WST-1 reagent (Millipore-Sigma, Burlington, MA) was applied and plates were then incubated at 37° C., 5% CO2 for 1 h before plates were read at 450 nm on a SpectraMax M3 Microplate Reader (Molecular Devices, San Jose, CA, USA). Experiments included three replicates per condition.
Compound,abrogation of GR-induced proliferation inhibition (NSC-34 cells; all doses (1-60 μM)),abrogation of GR-induced proliferation inhibition (NSC-34 cells; dose 3 μM),"excessive proliferation (NSC-34 cells; 300 nM GR15 or PR15, 24 h, all doses tested (1-60 μM))","abrogation of PR-induced proliferation inhibition (NSC-34 cells; 300 nM PR15, 24 h, all doses (1-60 μM))","abrogation of ADMe-GR15-induced dysmetabolism ([1]; 3 μM ADMe-GR15 challenge, 24 h, MS023 0.1-10 μM, three repeats)","lowest dose with significant partial abrogation of dysmetabolism in GR-treated cells ([1]; 3 μM GR15, 24 h, MS023 0.01-3 μM)","dose dependence of abrogation of GR15-induced dysmetabolism ([1]; 3 μM GR15 challenge, 24 h, dose range of the example)","abrogation of GR-induced dysmetabolism ([1]; 3 μM GR15 challenge, 24 h, inhibitor dose 3 μM)","abrogation of GR15-induced dysmetabolism ([1]; 3 μM GR15 challenge, 24 h, inhibitor doses 1 and 3 μM)","relative potency against GR- vs PR-induced dysmetabolism ([1]; 3 μM GR15 or PR15, 24 h, MS023 0.01-3 μM)","lowest dose with significant partial abrogation of dysmetabolism in PR-treated cells ([1]; 3 μM PR15, 24 h, MS023 0.01-3 μM)","dose dependence of abrogation of PR15-induced dysmetabolism ([1]; 3 μM PR15 challenge, 24 h, dose range of the example)","abrogation of PR15-induced dysmetabolism ([1]; 3 μM PR15 challenge, 24 h, inhibitor doses 1 and 3 μM)","dysmetabolism independently of DRP challenge ([1]; no DRP, over all doses tested)","effect of DRP on proliferation activity (NSC-34 cells; DRP 0.01-3 μM, 24 h)","dysmetabolism induced by DRP challenge ([1]; DRP 10 nM-3 μM, 24 h)",reduction of metabolic activity in NSC-34 compared to CHO [1],"rank among DRPs as inhibitor of proliferative activity (NSC-34 cells; DRP 0.01-3 μM, 24 h)"
CC(C)Oc1ccc(-c2c[nH]cc2CN(C)CCN)cc1 [MS023],partially abrogated,fully rescuing,without inducing excessive proliferation,fully abrogated,did not abrogate,0.1 µM,in a dose-dependent manner; also recorded: consistently dose-dependently abrogated,abrogated GR-induced dysmetabolism,completely abrogated,more potently abrogated GR-induced dysmetabolism,0.3 µM,in a dose-dependent manner; also recorded: dose-dependently abrogated,completely abrogated,No doses of MS023 tested induced dysmetabolism; also recorded: No doses of MS023 tested produced dysmetabolism,–,–,–,–
GRGRGRGRGRGRGRGRGRGRGRGRGRGRGR [GR15],–,–,–,–,–,–,–,–,–,–,–,–,–,–,significantly suppressed proliferative activity in a dose-dependent manner,induced dose-dependent dysmetabolism,significantly greater reduction of metabolic activity in NSC-34,–
PRPRPRPRPRPRPRPRPRPRPRPRPRPRPR [PR15],–,–,–,–,–,–,–,–,–,–,–,–,–,–,significantly suppressed proliferative activity in a dose-dependent manner,–,significantly greater reduction of metabolic activity in NSC-34,the strongest inhibitor
